Data: US11566007B2, “Ras inhibitors” (Revolution Medicines, Inc., priority 2019, dated 2023)

What follows are compounds tested against NRAS G12C (Homo sapiens (Human), UniProt P01111+P62937, G12C) (assay: Ras-Raf (BRAF RBD) disruption / FRET / MOA assay, NRAS G12C). Settings: read-out: IC50* NRAS G12C FRET data.
Type: biochemical
How it was run: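 Compounds, top final concentration 30 μM in 10-point 3-fold series, incubated 3 hours at 25° C with nucleotide-loaded Ras, cyclophilin A and BRAF RBD.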

Sequence of NRAS G12C (P01111 whole entry G12C): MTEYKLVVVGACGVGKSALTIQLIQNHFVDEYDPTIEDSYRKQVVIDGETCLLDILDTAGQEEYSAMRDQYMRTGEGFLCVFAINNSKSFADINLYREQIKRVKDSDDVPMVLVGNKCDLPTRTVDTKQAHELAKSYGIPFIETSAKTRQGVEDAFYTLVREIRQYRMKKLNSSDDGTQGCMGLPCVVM
Sequence of NRAS G12C (P62937 whole entry): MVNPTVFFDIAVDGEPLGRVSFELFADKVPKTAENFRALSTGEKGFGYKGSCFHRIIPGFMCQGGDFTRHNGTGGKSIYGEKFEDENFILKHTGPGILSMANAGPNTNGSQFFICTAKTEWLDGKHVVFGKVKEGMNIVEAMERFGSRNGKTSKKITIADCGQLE

| SMILES | IC50 [µM] |
| --- | --- |
| CO[C@@H](C)c1ncccc1-c1c2c3cc(ccc3n1CC(F)(F)F)N1CCO[C@@H](C[C@H](NC(=O)[C@H](C(C)C)N3CC[C@]4(CCN(C(=O)C#CC(C)(C)N(C)C)C4)C3=O)C(=O)N3CCC[C@H](N3)C(=O)OCC(C)(C)C2)C1 (atropisomer, axis not shown) [Example A642] | < 0.01 |
| CCn1c(-c2cccnc2[C@H](C)OC)c2c3cc(ccc31)N1CCO[C@@H](C[C@H](NC(=O)[C@H](C(C)C)N(C)C(=O)C3(F)CCN(C(=O)C#CC(C)(C)N(C)C)CC3)C(=O)N3CCC[C@H](N3)C(=O)OCC(C)(C)C2)C1 (atropisomer, axis not shown) [Example A647, 1-(4-(dimethylamino)-4-methylpent-2-ynoyl)-N-((2S)-1-(((2^2S,6^3S,4S)-1^1-ethyl-1^2-(2-((S)-1-methoxyethyl)pyridin-3-yl)-10,10-dimethyl-5,7-dioxo-6^1,6^2,6^3,6^4,6^5,6^6-hexahydro-1^1H-8-oxa-2(4,2)-morpholina-1(5,3)-indola-6(1,3)-pyridazinacycloundecaphane-4-yl)amino)-3-methyl-1-oxobutan-2-yl)-4-fluoro-N-methylpiperidine-4-carboxamide] | < 0.01 |
| C=CC(=O)N1CC[C@]2(C1)OCN([C@H](C(=O)N[C@H]1Cc3cccc(n3)-c3ccc4c(c3)c(c(-c3cccnc3[C@H](C)OC)n4CC)CC(C)(C)COC(=O)[C@@H]3CCCN(N3)C1=O)C(C)C)C2=O (atropisomer, axis not shown) [Example A652] | 0.1 to 1 |
| CCn1c(-c2cccnc2[C@H](C)OC)c2c3cc(ccc31)-c1cc(CF)cc(c1)C[C@H](NC(=O)[C@H](C(C)C)N(C)C(=O)[C@H]1CCN(C(=O)C#CC(C)(C)N(C)C)C1)C(=O)N1CCC[C@H](N1)C(=O)OCC(C)(C)C2 (atropisomer, axis not shown) [Example A658] | < 0.01 |
| C=CC(=O)N1CC2(CCCN2C(=O)N(C)[C@H](C(=O)N[C@H]2Cc3nc(cs3)-c3ccc4c(c3)c(c(-c3cccnc3[C@H](C)OC)n4CC)CC(C)(C)COC(=O)[C@@H]3CCCN(N3)C2=O)C(C)C)C1 (atropisomer, axis not shown) [Example A667] | < 0.01 |
| CCn1c(-c2cccnc2[C@H](C)OC)c2c3cc(ccc31)-c1cc(CF)cc(c1)C[C@H](NC(=O)[C@H](C(C)C)N1CC[C@]3(CCN(C(=O)C#CC(C)(C)N(C)C)C3)C1=O)C(=O)N1CCC[C@H](N1)C(=O)OCC(C)(C)C2 (atropisomer, axis not shown) [Example A673] | < 0.01 |
| CCn1c(-c2cccnc2[C@H](C)OC)c2c3cc(ccc31)-c1cccc(c1)C[C@H](NC(=O)[C@H](C(C)C)N(C)C(=O)C1(F)CCN(C(=O)/C=C/CN(C)C)CC1)C(=O)N1CCC[C@H](N1)C(=O)OCC(C)(C)C2 (atropisomer, axis not shown) [Example A685] | 0.01 to 0.1 |
| CO[C@@H](C)c1ncccc1-c1c2c3cc(ccc3n1CC(F)(F)F)-c1cccc(c1)C[C@H](NC(=O)[C@H](C(C)C)N1CC[C@]3(CCN(C(=O)C#CC(C)(C)N(C)C)C3)C1=O)C(=O)N1CCC[C@H](N1)C(=O)OCC(C)(C)C2 (atropisomer, axis not shown) [Example A689] | < 0.01 |
| CCn1c(-c2cccnc2[C@H](C)OC)c2c3cc(ccc31)-c1csc(n1)C[C@H](NC(=O)[C@H](C(C)C)N(C)C(=O)N(C)C1CN(C(=O)/C=C/C3CN(C)C3)C1)C(=O)N1CCC[C@H](N1)C(=O)OCC(C)(C)C2 (atropisomer, axis not shown) [Example A690] | 0.1 to 1 |
| CO[C@@H](C)c1ncccc1-c1c2c3cc(ccc3n1CC(F)(F)F)-c1cccc(c1)C[C@H](NC(=O)[C@@H](COC1CN(C(=O)C#CC3(C)OCCO3)C1)C(C)C)C(=O)N1CCC[C@H](N1)C(=O)OCC(C)(C)C2 (atropisomer, axis not shown) [Example A703] | 0.01 to 0.1 |
| C=CC(=O)N1CC(N(C)C(=O)N(C)[C@H](C(=O)N[C@H]2Cc3nc(cs3)-c3ccc4c(c3)c(c(-c3cccnc3[C@H](C)OC)n4CC(F)(F)F)CC(C)(C)COC(=O)[C@@H]3CCCN(N3)C2=O)C(C)C)C1 (atropisomer, axis not shown) [Example A711] | < 0.01 |
| CCn1c(-c2cccnc2[C@H](C)OC)c2c3cc(ccc31)-c1csc(n1)C[C@H](NC(=O)[C@@H](COC1CN(C(=O)C#CC(C)(C)N(C)C)C1)C(C)C)C(=O)N1CCC[C@H](N1)C(=O)OCC(C)(C)C2 (atropisomer, axis not shown) [Example A721] | < 0.01 |
| CO[C@@H](C)c1ncccc1-c1c2c3cc(ccc3n1CC(F)(F)F)-c1cccc(c1)C[C@H](NC(=O)[C@H](C(C)C)N(C)C(=O)[C@H]1CCN(C(=O)C#CC(C)(C)N(C)C)C1)C(=O)N1CCC[C@H](N1)C(=O)OCC(C)(C)C2 (atropisomer, axis not shown) [Example A727] | < 0.01 |
| CCn1c(-c2cccnc2)c2c3cc(ccc31)-c1csc(c1)C[C@H](NC(=O)[C@H](C(C)C)N(C)C(=O)[C@H]1CCN(C(=O)C#CCN3CCOCC3)C1)C(=O)N1CCC[C@H](N1)C(=O)OCC(C)(C)C2 [Example A205] | 1 to 10 |
| C=CC(=O)N1CC[C@H](C(=O)N(C)[C@H](C(=O)N[C@H]2C[C@H]3CN(CCO3)c3ccc4c(c3)c(c(-c3cccnc3COC)n4CC)CC(C)(C)COC(=O)[C@@H]3CCCN(N3)C2=O)C(C)C)C1 [Example A240] | 1 to 10 |
| CCn1c(-c2cccnc2[C@H](C)OC)c2c3cc(ccc31)N1CCO[C@@](C)(C[C@H](NC(=O)[C@H](C(C)C)N(C)C(=O)C3(F)CCN(C(=O)C#CC(C)(C)N(C)C)CC3)C(=O)N3CCC[C@H](N3)C(=O)OCC(C)(C)C2)C1 [Example A550] | < 0.01 |
| C=CC(=O)N1CCO[C@H]2CN(C(=O)N(C)[C@H](C(=O)N[C@H]3C[C@H]4CN(CCO4)c4ccc5c(c4)c(c(-c4cccnc4[C@H](C)OC)n5CC)CC(C)(C)COC(=O)[C@@H]4CCCN(N4)C3=O)C(C)C)C[C@H]21 [Example A562] | 0.1 to 1 |
